Test results published in patent US7041785B1, “B1-bradykinin receptor antagonists and use thereof” (Université de Sherbrooke, priority 1996, dated 2006).
Where two headings read alike, the source gives them in different places. Non-standard residues stand in square brackets, D forms with d. Residues, ends and D or L forms follow the SMILES beside them. Oic = O=C(O)[C@@H]1C[C@@H]2CCCC[C@@H]2N1; 2Nal = N[C@@H](Cc1ccc2ccccc2c1)C(=O)O; d2Nal = N[C@H](Cc1ccc2ccccc2c1)C(=O)O; Hyp = O=C(O)[C@@H]1C[C@@H](O)CN1; Tic = O=C(O)[C@@H]1Cc2ccccc2CN1; dTic = O=C(O)[C@H]1Cc2ccccc2CN1; 2Thi = N[C@@H](Cc1cccs1)C(=O)O; Sar = CNCC(=O)O

Columns and labels:
[1] = target: T1, angiotensin-converting enzyme (ACE) from rabbit lungs (Oryctolagus cuniculus, UniProt P12822); assay: Metabolic degradation by purified angiotensin-converting enzyme, HPLC analysis; type: in vitro ADME; design: purified angiotensin-converting enzyme (ACE) from rabbit lungs; purchased Sigma, St-Louis, Mo; host or cells: purified from rabbit lungs
T1 sequence (P12822 34-1310): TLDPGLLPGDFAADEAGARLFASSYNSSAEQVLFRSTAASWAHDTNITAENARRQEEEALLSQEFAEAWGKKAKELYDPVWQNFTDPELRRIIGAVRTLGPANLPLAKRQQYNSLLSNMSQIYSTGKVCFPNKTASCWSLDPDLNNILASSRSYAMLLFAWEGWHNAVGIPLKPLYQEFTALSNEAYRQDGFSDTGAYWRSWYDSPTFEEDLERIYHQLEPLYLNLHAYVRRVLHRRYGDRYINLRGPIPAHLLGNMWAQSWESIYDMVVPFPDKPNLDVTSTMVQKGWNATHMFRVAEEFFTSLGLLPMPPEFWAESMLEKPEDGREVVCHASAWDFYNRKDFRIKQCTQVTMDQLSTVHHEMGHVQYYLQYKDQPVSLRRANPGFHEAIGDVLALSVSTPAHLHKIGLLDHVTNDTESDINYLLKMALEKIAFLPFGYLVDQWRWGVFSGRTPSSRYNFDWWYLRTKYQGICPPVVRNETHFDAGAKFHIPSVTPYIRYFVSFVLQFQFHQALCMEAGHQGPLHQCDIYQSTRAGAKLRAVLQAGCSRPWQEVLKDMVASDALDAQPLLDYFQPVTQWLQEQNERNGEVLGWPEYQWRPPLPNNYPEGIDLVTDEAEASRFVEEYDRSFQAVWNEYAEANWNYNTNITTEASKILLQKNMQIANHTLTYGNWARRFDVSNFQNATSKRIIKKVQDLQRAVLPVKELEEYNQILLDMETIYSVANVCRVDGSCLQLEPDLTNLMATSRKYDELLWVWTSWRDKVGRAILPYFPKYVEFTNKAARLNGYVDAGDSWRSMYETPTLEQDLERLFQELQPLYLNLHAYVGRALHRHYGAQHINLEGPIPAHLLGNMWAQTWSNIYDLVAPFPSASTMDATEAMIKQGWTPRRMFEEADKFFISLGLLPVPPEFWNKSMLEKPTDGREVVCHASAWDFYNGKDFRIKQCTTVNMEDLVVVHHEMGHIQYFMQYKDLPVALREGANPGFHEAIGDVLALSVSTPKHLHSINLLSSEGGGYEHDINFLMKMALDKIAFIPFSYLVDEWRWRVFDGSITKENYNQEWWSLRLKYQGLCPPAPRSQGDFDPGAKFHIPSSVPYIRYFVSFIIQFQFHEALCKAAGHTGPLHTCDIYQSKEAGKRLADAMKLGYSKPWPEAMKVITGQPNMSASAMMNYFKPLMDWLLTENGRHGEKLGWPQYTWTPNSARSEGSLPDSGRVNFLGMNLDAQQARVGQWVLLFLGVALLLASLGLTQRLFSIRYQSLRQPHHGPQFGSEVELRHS
Method: (§1) The metabolic stability of various kinin-related peptides was evaluated by incubating the peptide in the presence of purified angiotensin-converting enzyme (ACE) from rabbit lungs (purchased from Sigma, St-Louis, Mo.) dissolved in phosphate buffered saline (PBS) (50 mmol/L, pH 7.5 containing 300 mmoL/L NaCl); the final concentration of enzyme was 45 μg/mL. The experimental protocol for the measurement of ACE activity has been described elsewhere^15,16. Briefly, 200 μmol/L of peptides (40 μL) were placed in a PBS buffer and incubated for 5 min at 37EC before adding 8.5 μL of ACE (total volume of the reaction medium; 190 μL). Samples were withdrawn at 30 min intervals, immersed in boiling water for 5 min, then cooled on ice and centrifuged (5 min) before proceeding to analysis of peptides by high pressure liquid chromatography (HPLC). Results of ACE metabolism are expressed in percent of kinin degradation following the incubation (30 min) of kinin substrates with the enzyme.
(§2) Pure peptides and metabolic products were analysed by reverse-phas HPLC on a C18 μBondapak column (4.6 mm×25 cm) (Waters) of 10-μm particle size. The peptides and their fragments were eluted at the rate of 2.0 mL/min. with a linear gradient ranging from 5 to 65% of acetonitrile/TFA 0.05%/water over 20 min. at room temperature. The elution positions of these peptides were determined by following the absorbance at 214 nm. For each assay, 50 μL of the reaction medium (treated or not with ACE) were extracted and injected into the column. Concentrations of the peaks products, different from the peaks of the peptide substrate, were estimated using a computer software program (Baseline 810; Waters) that controlled also all the chromatography operations. Isolated metabolites and substrates were collected and identified by Electrospray mass spectrometry (positive mode).

[2] = test system: T2, angiotensin-converting enzyme (ACE); assay: as above; type: in vitro ADME, rabbit; conditions: rabbit, isolated enzyme ace, pH 7.5
T2 construct: purified angiotensin-converting enzyme (ACE) from rabbit lungs; purchased Sigma, St-Louis, Mo; host or cells: purified from rabbit lungs
Method: as §1, §2

[3] = 30 min incubation of peptide (200 μmol/L) with ACE, 37 C, read-out: ACE (% degradation)

Structure (SMILES)	Less susceptible to ACE proteolytic degradation, relative to Lys(Leu8)desArgBK [1]	metabolised at 0.5 h [2]	metabolised at 0.5 h [2, 3]	metabolised at 0.5 h, 42.1 μmol/L [2]
CC(C)C[C@H](NC(=O)[C@H]1Cc2ccccc2CN1C(=O)[C@H](CO)NC(=O)[C@H](Cc1ccccc1)NC(=O)CNC(=O)[C@@H]1CCCN1C(=O)[C@@H]1CCCN1C(=O)[C@@H](N)CCCNC(=N)N)C(=O)O [Compound 8, (D-Tic^7, Leu^8)desArg^9BK] (H-RPPGFS[dTic]L-OH; N-terminus and C-terminus assumed)	2-5 times	0%	–	–
CNCC(=O)N[C@@H](CCCNC(=N)N)C(=O)N1CCC[C@H]1C(=O)N1CCC[C@H]1C(=O)NCC(=O)N[C@@H](Cc1ccccc1)C(=O)N[C@@H](CO)C(=O)N1Cc2ccccc2C[C@@H]1C(=O)N[C@@H](CC(C)C)C(=O)O [Compound 9, Sar(D-Tic^7, Leu^8)desArg^9BK] (H-[Sar]RPPGFS[dTic]L-OH; N-terminus and C-terminus assumed)	2-5 times	–	0%	–
CC(C)C[C@H](NC(=O)[C@H]1Cc2ccccc2CN1C(=O)[C@H](CO)NC(=O)[C@H](Cc1ccccc1)NC(=O)CNC(=O)[C@@H]1CCCN1C(=O)[C@@H]1CCCN1C(=O)[C@H](CCCNC(=N)N)NC(=O)[C@H](N)CCCNC(=N)N)C(=O)O [Compound 12, D-Arg(D-Tic^7, Leu^8)desArg^9BK] (H-[dR]RPPGFS[dTic]L-OH; N-terminus and C-terminus assumed)	2-5 times	0%	–	–
CC[C@H](C)[C@H](NC(=O)[C@H]1Cc2ccccc2CN1C(=O)[C@H](CO)NC(=O)[C@H](Cc1ccccc1)NC(=O)CNC(=O)[C@@H]1CCCN1C(=O)[C@@H]1CCCN1C(=O)[C@H](CCCNC(=N)N)NC(=O)[C@H](N)CCCNC(=N)N)C(=O)O [Compound 13, D-Arg(D-Tic^7, Ile^8)desArg^9BK] (H-[dR]RPPGFS[dTic]I-OH; N-terminus and C-terminus assumed)	2-5 times	9 ± 1%	–	–
CC[C@H](C)[C@H](NC(=O)[C@@H]1Cc2ccccc2CN1C(=O)[C@H](CO)NC(=O)[C@H](Cc1ccccc1)NC(=O)CNC(=O)[C@@H]1CCCN1C(=O)[C@@H]1CCCN1C(=O)[C@H](CCCNC(=N)N)NC(=O)[C@H](N)CCCNC(=N)N)C(=O)O [Compound 14, D-Arg(L-Tic^7, Ile^8)desArg^9BK] (H-[dR]RPPGFS[Tic]I-OH; N-terminus and C-terminus assumed)	–	77 ± 3%	–	–
CC(C)C[C@H](NC(=O)[C@H]1Cc2ccccc2CN1C(=O)[C@H](CO)NC(=O)[C@H](Cc1ccccc1)NC(=O)CNC(=O)[C@@H]1C[C@@H](O)CN1C(=O)[C@@H]1CCCN1C(=O)[C@H](CCCNC(=N)N)NC(=O)[C@H](N)CCCNC(=N)N)C(=O)O [Compound 17, D-Arg(Hyp^3, D-Tic^7, Leu^8)desArg^9BK] (H-[dR]RP[Hyp]GFS[dTic]L-OH; N-terminus and C-terminus assumed)	2-5 times	0%	–	–
CC(=O)N[C@@H](CCCCN)C(=O)N[C@@H](CCCNC(=N)N)C(=O)N1CCC[C@H]1C(=O)N1CCC[C@H]1C(=O)NCC(=O)N[C@@H](Cc1ccccc1)C(=O)N[C@@H](CO)C(=O)N[C@H](Cc1ccc2ccccc2c1)C(=O)N[C@@H](CC(C)C)C(=O)O [Compound 18, AcLys(D-βNal^7, Leu^8)desArg^9BK] (Ac-KRPPGFS[d2Nal]L-OH; C-terminus assumed)	2-5 times	–	–	22 ± 1%
CC[C@H](C)[C@H](NC(=O)[C@@H](Cc1ccc2ccccc2c1)NC(=O)[C@H](CO)NC(=O)[C@H](Cc1ccccc1)NC(=O)CNC(=O)[C@@H]1CCCN1C(=O)[C@@H]1CCCN1C(=O)[C@H](CCCN=C(N)N)NC(=O)[C@H](CCCCN)NC(C)=O)C(=O)O [Compound 19, AcLys(D-βNal^7, Ile^8)desArg^9BK] (Ac-KRPPGFS[d2Nal]I-OH)	2-5 times	–	–	34 ± 1%
CC[C@H](C)[C@H](NC(=O)[C@H](Cc1ccc2ccccc2c1)NC(=O)[C@H](CO)NC(=O)[C@H](Cc1ccccc1)NC(=O)CNC(=O)[C@@H]1CCCN1C(=O)[C@@H]1CCCN1C(=O)[C@H](CCCNC(=N)N)NC(=O)[C@H](CCCCN)NC(C)=O)C(=O)O [Compound 20, AcLys(L-βNal^7, Ile^8)desArg^9BK] (Ac-KRPPGFS[2Nal]I-OH; C-terminus assumed)	–	–	–	99 ± 1%
CC[C@H](C)[C@H](NC(=O)[C@@H](Cc1ccc2ccccc2c1)NC(=O)[C@H](CO)NC(=O)[C@H](Cc1ccccc1)NC(=O)CNC(=O)[C@@H]1CCCN1C(=O)[C@@H]1CCCN1C(=O)[C@H](CCCNC(=N)N)NC(=O)[C@H](N)CCCNC(=N)N)C(=O)O [Compound 23, D-Arg(D-βNal^7, Ile^8)desArg^9BK] (H-[dR]RPPGFS[d2Nal]I-OH; N-terminus and C-terminus assumed)	2-5 times	–	–	8 ± 1%
CC(C)C[C@H](NC(=O)[C@@H](Cc1ccc2ccccc2c1)NC(=O)[C@H](CO)NC(=O)[C@H](Cc1ccccc1)NC(=O)CNC(=O)[C@@H]1CCCN1C(=O)[C@@H]1CCCN1C(=O)[C@H](CCCNC(=N)N)NC(=O)[C@H](N)CCCNC(=N)N)C(=O)O [Compound 24, D-Arg(D-βNal^7, Leu^8)desArg^9BK] (H-[dR]RPPGFS[d2Nal]L-OH; N-terminus and C-terminus assumed)	2-5 times	–	–	5 ± 1%
CC[C@H](C)[C@H](NC(=O)[C@@H](Cc1ccc2ccccc2c1)NC(=O)[C@H](CO)NC(=O)[C@H](Cc1ccccc1)NC(=O)CNC(=O)[C@@H]1CCCN1C(=O)[C@@H]1CCCN1C(=O)[C@H](CCCNC(=N)N)NC(=O)[C@H](N)CCCCN)C(=O)O [Compound 25, D-Lys(D-βNal^7, Ile^8)desArg^9BK] (H-[dK]RPPGFS[d2Nal]I-OH; N-terminus and C-terminus assumed)	2-5 times	–	–	9 ± 2%
N=C(N)NCCC[C@@H](N)C(=O)N[C@@H](CCCNC(=N)N)C(=O)N1CCC[C@H]1C(=O)N1C[C@H](O)C[C@H]1C(=O)NCC(=O)N[C@@H](Cc1cccs1)C(=O)N[C@@H](CO)C(=O)N1Cc2ccccc2C[C@@H]1C(=O)N1[C@H](C(=O)O)C[C@@H]2CCCC[C@@H]21 [Compound 31, D-Arg(Hyp^3, Thi^5, D-Tic^7, Oic^8)desArg^9BK, reference compound] (H-[dR]RP[Hyp]G[2Thi]S[dTic][Oic]-OH; N-terminus and C-terminus assumed)	–	–	0%	–
